Test results from patent publication US20230087118A1, “IMIDAZO[1,2-a][sequence] DERIVATIVES AND THEIR USE IN THE TREATMENT OF DISEASE” (priority 2019, published 2023).
Read-outs that look alike come from different tables or passages of the source.

Biological target: T1, IRAK4 (Homo sapiens, UniProt Q9NWZ3)
T1 sequence (Q9NWZ3 1-460): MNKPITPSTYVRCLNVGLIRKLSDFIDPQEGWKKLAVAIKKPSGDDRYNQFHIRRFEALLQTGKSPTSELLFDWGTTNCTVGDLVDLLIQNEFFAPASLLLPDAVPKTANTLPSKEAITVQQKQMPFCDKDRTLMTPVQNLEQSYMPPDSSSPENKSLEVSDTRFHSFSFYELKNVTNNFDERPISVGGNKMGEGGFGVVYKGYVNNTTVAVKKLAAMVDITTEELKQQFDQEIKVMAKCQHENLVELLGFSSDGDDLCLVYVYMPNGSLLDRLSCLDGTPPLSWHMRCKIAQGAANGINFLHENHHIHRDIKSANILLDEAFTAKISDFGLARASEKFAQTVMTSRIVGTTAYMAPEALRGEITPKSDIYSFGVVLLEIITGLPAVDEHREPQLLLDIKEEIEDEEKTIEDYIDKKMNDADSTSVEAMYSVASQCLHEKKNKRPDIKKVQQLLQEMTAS
Experiment: biochemical

| IC50 [µM] | IC50 (IRAK4 Biochemical Assay (1 mM ATP, 2 h) IC50 (μM), 1 mM ATP, 2 h, 100 pM IRAK4) [µM] | Structure (SMILES) |
| --- | --- | --- |
| 0.0047 |  | CCOc1nc(C(=O)Nc2cccc(C)c2F)cn2cc(C34COC(C)(C3)C4)nc12 [Example 496, 8-Ethoxy-N-(2-fluoro-3-methylphenyl)-2-(1-methyl-2-oxabicyclo[2.1.1]hexan-4-yl)imidazo[1,2-a]pyrazine-6-carboxamide] |
| 0.007 |  | CCOc1nc(C(=O)Nc2cccc(C(F)(F)F)c2)cn2cc(C34COC(C)(C3)C4)nc12 [Example 497, 8-Ethoxy-2-(1-methyl-2-oxabicyclo[2.1.1]hexan-4-yl)-N-(3-(trifluoromethyl)phenyl)imidazo[1,2-a]pyrazine-6-carboxamide] |
| 0.0043 |  | CCOc1nc(C(=O)Nc2cnn3cc(C)cnc23)cn2cc(C34COC(C)(C3)C4)nc12 [Example 498, 8-Ethoxy-2-(1-methyl-2-oxabicyclo[2.1.1]hexan-4-yl)-N-(6-methylpyrazolo[1,5-a]pyrimidin-3-yl)imidazo[1,2-a]pyrazine-6-carboxamide] |
| 0.0017 |  | CCOc1nc(C(=O)Nc2cccnc2OC(C)C)cn2cc(C34COC(C)(C3)C4)nc12 [Example 499, 8-Ethoxy-N-(2-isopropoxypyridin-3-yl)-2-(1-methyl-2-oxabicyclo[2.1.1]hexan-4-yl)imidazo[1,2-a]pyrazine-6-carboxamide] |
| 0.0021 |  | CCOc1nc(C(=O)Nc2cccn(C)c2=O)cn2cc(C34COC(C)(C3)C4)nc12 [Example 500, 8-Ethoxy-N-(1-methyl-2-oxo-1,2-dihydropyridin-3-yl)-2-(1-methyl-2-oxabicyclo[2.1.1]hexan-4-yl)imidazo[1,2-a]pyrazine-6-carboxamide] |
| 0.0055 |  | CC(C)Oc1cc2nc(C34CCC(C)(C3)OC4)cn2cc1C(=O)Nc1nc(C(F)(F)F)cs1 (centres unmarked) [Example 503, 7-Isopropoxy-2-(1-methyl-2-oxabicyclo[2.2.1]heptan-4-yl)-N-(4-(trifluoromethyl)thiazol-2-yl)imidazo[1,2-a]pyridine-6-carboxamide] |
|  | 0.0018 | CC(C)Oc1cc2nc(C34CCC(C)(C3)OC4)cn2cc1C(=O)Nc1ccn(C(F)F)n1 (centres unmarked) [Example 504, N-(1-(difluoromethyl)-1H-pyrazol-3-yl)-7-isopropoxy-2-(1-methyl-2-oxabicyclo[2.2.1]heptan-4-yl)imidazo[1,2-a]pyridine-6-carboxamide] |
| 0.0005 |  | CC(C)Oc1cc2nc(C34CCC(C)(C3)OC4)cn2cc1C(=O)Nc1cccn(C)c1=O (centres unmarked) [Example 505, 7-Isopropoxy-N-(1-methyl-2-oxo-1,2-dihydropyridin-3-yl)-2-(1-methyl-2-oxabicyclo[2.2.1]heptan-4-yl)imidazo[1,2-a]pyridine-6-carboxamide] |
| 0.0038 |  | CC(C)Oc1cc2nc(C34CCC(C)(C3)OC4)cn2cc1C(=O)Nc1ccn(C(F)(F)F)n1 (centres unmarked) [Example 506, 7-Isopropoxy-2-(1-methyl-2-oxabicyclo[2.2.1]heptan-4-yl)-N-(1-(trifluoromethyl)-1H-pyrazol-3-yl)imidazo[1,2-a]pyridine-6-carboxamide] |
| 0.0095 |  | Cc1nocc1NC(=O)c1cn2cc(C34CCC(C)(C3)OC4)nc2cc1OC(C)C (centres unmarked) [Example 507, 7-Isopropoxy-2-(1-methyl-2-oxabicyclo[2.2.1]heptan-4-yl)-N-(3-methylisoxazol-4-yl)imidazo[1,2-a]pyridine-6-carboxamide] |
| 0.0023 |  | CCn1ccc(NC(=O)c2cn3cc(C45CCC(C)(C4)OC5)nc3cc2OC(C)C)n1 (centres unmarked) [Example 508, N-(1-ethyl-1H-pyrazol-3-yl)-7-isopropoxy-2-(1-methyl-2-oxabicyclo[2.2.1]heptan-4-yl)imidazo[1,2-a]pyridine-6-carboxamide] |
| 0.0003 |  | CC(C)Oc1cc2nc(C34CCC(C)(C3)OC4)cn2cc1C(=O)Nc1cccc(C#N)n1 (centres unmarked) [Example 509, N-(6-cyanopyridin-2-yl)-7-isopropoxy-2-(1-methyl-2-oxabicyclo[2.2.1]heptan-4-yl)imidazo[1,2-a]pyridine-6-carboxamide] |
| 0.0042 |  | CCc1ncsc1NC(=O)c1cn2cc(C34CCC(C)(C3)OC4)nc2cc1OC(C)C (centres unmarked) [Example 511, N-(4-ethylthiazol-5-yl)-7-isopropoxy-2-(1-methyl-2-oxabicyclo[2.2.1]heptan-4-yl)imidazo[1,2-a]pyridine-6-carboxamide] |
| 0.0003 |  | COc1nscc1NC(=O)c1cn2cc(C34CCC(C)(C3)OC4)nc2cc1OC(C)C (centres unmarked) [Example 513, 7-Isopropoxy-N-(3-methoxyisothiazol-4-yl)-2-(1-methyl-2-oxabicyclo[2.2.1]heptan-4-yl)imidazo[1,2-a]pyridine-6-carboxamide] |
| 0.0014 |  | CC(C)Oc1cc2nc(C34CCC(C)(C3)OC4)cn2cc1C(=O)Nc1cccc(F)c1F (centres unmarked) [Example 515, N-(2,3-difluorophenyl)-7-isopropoxy-2-(1-methyl-2-oxabicyclo[2.2.1]heptan-4-yl)imidazo[1,2-a]pyridine-6-carboxamide] |
| 0.0015 |  | CC(C)Oc1cc2nc(C34CCC(C)(C3)OC4)cn2cc1C(=O)Nc1nc(C(F)F)cs1 (centres unmarked) [Example 516, N-(4-(difluoromethyl)thiazol-2-yl)-7-isopropoxy-2-(1-methyl-2-oxabicyclo[2.2.1]heptan-4-yl)imidazo[1,2-a]pyridine-6-carboxamide] |
| 0.003 |  | CC(C)Oc1cc2nc(C3CC3)cn2cc1C(=O)Nc1cccc(CC#N)n1 [Example 519, N-(6-(cyanomethyl)pyridin-2-yl)-2-cyclopropyl-7-isopropoxy-imidazo[1,2-a]pyridine-6-carboxamide] |

Continued, molecule first:

| Structure (SMILES) | IC50 [µM] | IC50 (IRAK4 Biochemical Assay (1 mM ATP, 2 h) IC50 (μM), 1 mM ATP, 2 h, 100 pM IRAK4) [µM] |
| --- | --- | --- |
| CCOc1nc(C(=O)Nc2ccn(CC)n2)cn2cc(C34COC(C)(C3)C4)nc12 [Example 501, 8-Ethoxy-N-(1-ethyl-1H-pyrazol-3-yl)-2-(1-methyl-2-oxabicyclo[2.1.1]hexan-4-yl)imidazo[1,2-a]pyrazine-6-carboxamide] | 0.0069 |  |
| CC(C)Oc1cc2nc(C34CCC(C)(C3)OC4)cn2cc1C(=O)Nc1cccc(C(F)(F)F)c1F (centres unmarked) [Example 502, N-(2-fluoro-3-(trifluoromethyl)phenyl)-7-isopropoxy-2-(1-methyl-2-oxabicyclo[2.2.1]heptan-4-yl)imidazo[1,2-a]pyridine-6-carboxamide] | 0.0004 |  |
| CC(C)Oc1cc2nc(C34CCC(C)(C3)OC4)cn2cc1C(=O)Nc1cccc(C(F)(F)F)c1 (centres unmarked) [Example 510, 7-Isopropoxy-2-(1-methyl-2-oxabicyclo[2.2.1]heptan-4-yl)-N-(3-(trifluoromethyl)phenyl)imidazo[1,2-a]pyridine-6-carboxamide] | 0.001 |  |
| CC(C)Oc1cc2nc(C34CCC(C)(C3)OC4)cn2cc1C(=O)Nc1nccs1 (centres unmarked) [Example 512, 7-Isopropoxy-2-(1-methyl-2-oxabicyclo[2.2.1]heptan-4-yl)-N-(thiazol-2-yl)imidazo[1,2-a]pyridine-6-carboxamide] | 0.009 |  |
| CC(C)Oc1cc2nc(C34CCC(C)(C3)OC4)cn2cc1C(=O)Nc1cccc(C(F)F)c1 (centres unmarked) [Example 514, N-(3-(difluoromethyl)phenyl)-7-isopropoxy-2-(1-methyl-2-oxabicyclo[2.2.1]heptan-4-yl)imidazo[1,2-a]pyridine-6-carboxamide] | 0.0005 |  |
| CC(C)Oc1cc2nc(C34CCC(C)(C3)OC4)cn2cc1C(=O)Nc1ccc(F)cn1 (centres unmarked) [Example 517, N-(5-fluoropyridin-2-yl)-7-isopropoxy-2-(1-methyl-2-oxabicyclo[2.2.1]heptan-4-yl)imidazo[1,2-a]pyridine-6-carboxamide] | 0.0043 |  |
| CC(C)Oc1cc2nc(C34CCC(C)(C3)OC4)cn2cc1C(=O)Nc1ccccn1 (centres unmarked) [Example 518, 7-Isopropoxy-2-(1-methyl-2-oxabicyclo[2.2.1]heptan-4-yl)-N-(pyridin-2-yl)imidazo[1,2-a]pyridine-6-carboxamide] | 0.004 |  |
| Cn1cc(-c2cccc(NC(=O)c3cn4cc(C56COC(C)(C5)C6)nc4cc3OC3CCC3)n2)cn1 [Example 520, 7-Cyclobutoxy-N-(6-(1-methyl-1H-pyrazol-4-yl)pyridin-2-yl)-2-(1-methyl-2-oxabicyclo[2.1.1]hexan-4-yl)imidazo[1,2-a]pyridine-6-carboxamide] | 0.0001 |  |
| CC12CC(c3cn4cc(C(=O)Nc5ccn(C(F)(F)F)n5)c(OC5CCC5)cc4n3)(CO1)C2 [Example 521, 7-Cyclobutoxy-2-(1-methyl-2-oxabicyclo[2.1.1]hexan-4-yl)-N-(1-(trifluoromethyl)-1H-pyrazol-3-yl)imidazo[1,2-a]pyridine-6-carboxamide] | 0.0118 |  |
| Cc1cc(-n2ccc(NC(=O)c3cn4cc(C56COC(C)(C5)C6)nc4cc3OC3CCC3)n2)ccn1 [Example 522, 7-Cyclobutoxy-2-(1-methyl-2-oxabicyclo[2.1.1]hexan-4-yl)-N-(1-(2-methylpyridin-4-yl)-1H-pyrazol-3-yl)imidazo[1,2-a]pyridine-6-carboxamide] | 0.0005 |  |
| CC12CC(c3cn4cc(C(=O)Nc5ccn(C(F)F)n5)c(OC5CCC5)cc4n3)(CO1)C2 [Example 523, 7-Cyclobutoxy-N-(1-(difluoromethyl)-1H-pyrazol-3-yl)-2-(1-methyl-2-oxabicyclo[2.1.1]hexan-4-yl)imidazo[1,2-a]pyridine-6-carboxamide] | 0.0023 |  |
| CC12CC(c3cn4cc(C(=O)Nc5ccn(C6CCC6)n5)c(OC5CCC5)cc4n3)(CO1)C2 [Example 524, 7-Cyclobutoxy-N-(1-cyclobutyl-1H-pyrazol-3-yl)-2-(1-methyl-2-oxabicyclo[2.1.1]hexan-4-yl)imidazo[1,2-a]pyridine-6-carboxamide] | 0.0111 |  |
